Measured values reported in patent US9283236B2 (HUMAN MATRIX SCIENCES, LLC, priority 2008, dated 2016).
Entries after “also recorded” stand apart in the source; their conditions may differ. Where two headings read alike, the source gives them in different places.

How the values were obtained:
[1] = system: human fetal cardiac fibroblasts; assay: One-step RT-PCR of elastin mRNA in cardiac fibroblast cultures; format: cell-based; settings: for effect on aldosterone-induced increase in elastin mRNA levels: agent added 1 hour (CT04 2 hours) before aldosterone
[2] = system: human fetal cardiac fibroblasts; assay: Quantitative assay of [3H]valine-labeled insoluble elastin; format: cell-based; settings: for effect on aldosterone-induced increase in insoluble elastin production: agent added 1 hour before aldosterone (50 nM or 1 to 50 nmol/L)
[3] = system: human fetal cardiac fibroblasts; assay: One-step RT-PCR of collagen type I mRNA in cardiac fibroblast cultures; format: cell-based; settings: 1 hour pretreatment before 1 to 50 nmol/L aldosterone; spironolactone 2 μmol/L, RU 486 1 μmol/L
[4] = system: human fetal cardiac fibroblasts; assay: Immunostaining of collagen type I fibers in confluent cultures; format: cell-based; settings: pretreatment before 1 to 50 nmol/L aldosterone; RU 486 1 μmol/L; FIG. 1
[5] = system: human fetal cardiac fibroblasts; assay: Quantitative assay of [3H]valine-labeled immunoprecipitable tropoelastin; format: cell-based; settings: spironolactone with 1 to 50 nmol/L aldosterone, 72 hours
Method: Fetal human cardiac fibroblasts were grown to confluence in 35-mm culture dishes (100,000 cells/dish) in quadruplicate. […] Cultures were incubated for 72 hours, and the soluble and insoluble elastin were assessed separately in each dish. The cells were extensively washed with phosphate-buffered saline, and the soluble proteins present in the intracellular compartments were extracted overnight at 4° C. with 0.1 mol/L acetic acid in the presence of proteinase inhibitors. After centrifugation, the supernatants were precleaned by 30-minute incubation with 50 μl of 4% protein A-beaded agarose, and then 500 μl of the supernatant was incubated with 5 μg of polyclonal antibody to tropoelastin for 2 hours and subsequently with 50 μl of 4% protein A-beaded agarose for 3 hours at 4° C. The protein A-containing beads were sedimented by centrifugation, washed with immunoprecipitation buffer, mixed with scintillation fluid, and counted. […] The resulting pellets containing the insoluble elastin were then solubilized by boiling in 200 μl of 5.7 N HCl for 1 hour, and the aliquots were mixed in scintillation fluid and counted. […] Final results reflecting amounts of metabolically labeled insoluble elastin in individual cultures were normalized per their DNA content and expressed as counts per minute per 1 μg of DNA.

[6] = system: adult human cardiac fibroblasts; assay: One-step RT-PCR of elastin mRNA in adult cardiac fibroblasts; format: cell-based; settings: 1 hour pretreatment before aldosterone
[7] = system: adult human cardiac fibroblasts; assay: Anti-elastin immunostaining in adult cardiac fibroblasts; format: cell-based; settings: spironolactone pretreatment
Method: Control cell cultures received an equal amount of the solvent vehicle. […] ScienCell (San Diego, Calif.). At the end of the 72-hour incubation period with the indicated treatment, confluent cultures were either fixed in ice-cold 100% methanol at -20° C. […] The cultures were then incubated for 1 hour with 10 μg/ml polyclonal antibody to tropoelastin or with 10 μg/ml polyclonal antibody to collagen type I. All cultures were then incubated for an additional hour with fluorescein-conjugated goat anti-rabbit or with fluorescein-conjugated rabbit anti-goat secondary antibodies to detect elastin and collagen type I staining, respectively. Nuclei were counterstained with propidium iodide. Secondary antibody alone was used as a control. All of the cultures were then mounted in Elvanol and examined with a Nikon Eclipse […] microscope attached to a cooled charge-coupled device camera (Retiga EX; QImaging, Surrey, BC, Canada) and a computer-generated video analysis system (Image-Pro Plus software; Media Cybernetics, Silver Spring, Md.).

[8] = system: IGF-IR; assay: IGF-IR immunoprecipitation and anti-phosphotyrosine blot; format: cell-based, human
Method: Cells were lysed using an radioimmunoprecipitation assay buffer [50 mmol/L Tris-HCl, pH 7.4, 150 mmol/L NaCl, 1 mmol/L ethylenediamine tetraacetic acid, 10 mmol/L NaF, 1% Triton X-100, 0.1% sodium dodecyl sulfate, 1% sodium deoxycholate containing a cocktail of antiproteases (20 μg/ml leupeptin, 10 μg/ml aprotinin, 0.1 mmol/L phenylmethylsulfonyl fluoride, and 1 mmol/L dithiothreitol) and antiphosphates ([…] orthovanadate and 2 μg/ml pepstatin)], and 300 μg of protein extract was incubated with an antibody against IGF-IRβ for 1 hour at 4° C., followed by the addition of 4% protein A-beaded agarose left overnight, as previously described. The resulting protein-antibody conjugate was centrifuged at 4° C. and washed four times with phosphate-buffered saline. The final pellet was resuspended in sample buffer (0.5 mol/L Tris-HCl, pH 6.8, 10% sodium dodecyl sulfate, 10% glycerol, 4% 2-B-mercaptoethanol, and 0.05% bromphenol blue), and the mixture was boiled for 5 minutes. Proteins were resolved by 12% sodium dodecyl sulfate-polyacrylamide gel electrophoresis, transferred to nitrocellulose membranes, and then immunoblotted with anti-p-Tyr or anti-IGF-IR antibodies. The degree of expression or phosphorylation of immunodetected signaling molecules was measured by densitometry.
At the end of each experiment the cells were lysed as specified above, and 300 μg of protein extract were then precleared for 1 hour with normal rabbit agarose conjugated-IgG at 4° C. and incubated with rabbit polyclonal antibodies against IGF-IR-β, c-Src, or with Gα13 for 1 hour at 4° C., followed by the addition of 4% protein A-beaded agarose and left overnight. The resulting protein-antibody conjugate was centrifuged at 4° C. and washed four times with PBS. The final pellet was resuspended in sample buffer, and the proteins were resolved. Following immunoprecipitation of IGF-IR-β, the membrane was immunoblotted using monoclonal anti-p-Tyr antibody, stripped, and reprobed using anti-IGF-IR-β. Following immunoprecipitation of c-Src, the membranes were immunoblotted using polyclonal goat antibodies against anti-Gα13, while those immunoprecipitated with anti-Gα13 were developed with monoclonal anti-c-Src antibody. Blots were stripped and re-probed for equal loading.
The degree of expression or phosphorylation of immunodetected signaling molecules was measured by densitometry.

[9] = system: Gα13 and c-Src; assay: Co-immunoprecipitation of Gα13 and c-Src; format: cell-based, human; settings: vs untreated controls
[10] = agent added before aldosterone, readout not specified, partly data not shown

With `CC(C)(C)c1cc(C=C(C#N)C#N)cc(Br)c1O` [AG 1024] the “effect on aldosterone-induced increase in elastin mRNA levels” value ([1]; 24 hours) was “eliminated the stimulatory effect of aldosterone on elastin mRNA expression; also recorded: abolished aldosterone- and IGF-I-induced increases in elastin mRNA transcript levels”, the “effect on IGF-I-induced increase in elastin mRNA levels” value ([1]; pretreatment or siRNA transfection before 100 ng/ml IGF-I) was “could be prevented; also recorded: abolished aldosterone- and IGF-I-induced increases in elastin mRNA transcript levels” and the “effect on aldosterone-induced increase in insoluble elastin production” value ([2]; 72 hours) was “eliminated the stimulatory effect of aldosterone on elastin mRNA expression and insoluble elastin production; also recorded: returned insoluble elastin production to control values”. For the same compound, the “effect on IGF-I-induced increase in insoluble elastin production” value ([2]; pretreatment or siRNA transfection before 100 ng/ml IGF-I, 72 hours) was “could be prevented; also recorded: returned insoluble elastin production to control values”.

With `Cc1cc2ncc(-c3ccccc3)nc2cc1C` [AG 1295] the “effect on aldosterone-induced increase in elastin production (elastogenic response)” value [2, 10] was “did not affect the aldosterone-induced increase in elastin production”.

`COc1cc2ncnc(Nc3cccc(Cl)c3)c2cc1OC` [AG 1478] was tested, and the “effect on aldosterone-induced increase in elastin production (elastogenic response)” value [2, 10] was “did not affect the aldosterone-induced increase in elastin production”.

In the case of `COc1cccc(-c2cc(=O)c3ccccc3o2)c1N` [PD 98059], the “insoluble elastin production, inhibitor alone” value ([2]; 10 μM, 72 hours, 10% FBS, vs untreated control) is reported as “significantly increased insoluble elastin production” and the “effect on aldosterone-induced increase in insoluble elastin production” value ([2]; 72 hours) is reported as “did not eliminate the elastogenic effect of aldosterone but instead led to a further increase in the production of elastin; also recorded: further increased insoluble elastin production”.

For `Cc1cc(Cn2cnc3c2C[C@@H](C(=O)O)N(C(=O)C(c2ccccc2)c2ccccc2)C3)ccc1N(C)C` [PD 123319], the “effect on aldosterone-induced increase in elastin production (elastogenic response)” value [2, 10] was “did not abrogate their elastogenic response to aldosterone”.

In the case of `CC#C[C@]1(O)CC[C@H]2[C@@H]3CCC4=CC(=O)CCC4=C3[C@@H](c3ccc(N(C)C)cc3)C[C@@]21C` [RU 486, mifepristone], the “effect on aldosterone-induced increase in collagen type I mRNA levels” value [3] is reported as “had no effect on the aldosterone-induced increase in collagen type I mRNA transcript levels”, the “effect on aldosterone-induced collagen production” value [4] is reported as “but not with the glucocorticoid receptor (GR) antagonist RU 486 (1 μmol/L), abrogated aldosterone-induced collagen production” and the “effect on aldosterone-induced increase in elastin mRNA levels” value ([1]; 24 hours) is reported as “had no effect on the aldosterone-induced increase in elastin mRNA levels; also recorded: neither spironolactone nor RU 486 eliminated this increase”.

`NC(=O)c1ccc(-c2nc(-c3ccc4c(c3)OCO4)c(-c3ccccn3)[nH]2)cc1` [SB 431542] was tested, and the “effect on aldosterone-induced increase in elastin production (elastogenic response)” value [2, 10] was “did not affect the aldosterone-induced increase in elastin production”.

For `C[C@@H](N)[C@H]1CC[C@H](C(=O)Nc2ccncc2)CC1` [Y-27632], the “effect on aldosterone-induced increase in elastin mRNA levels” value ([1]; 24 hours) was “did not eliminate the aldosterone-induced increase in elastin mRNA expression” and the “effect on aldosterone-induced increase in elastin production (elastogenic response)” value [2, 10] was “did not eliminate the aldosterone-induced increase in elastin mRNA expression and elastin production”.

In the case of `CCCCc1nc(Cl)c(CO)n1Cc1ccc(-c2ccccc2-c2nn[nH]n2)cc1` [losartan, Losartan], the “effect on aldosterone-induced increase in elastin production (elastogenic response)” value [2, 10] is reported as “did not abrogate their elastogenic response to aldosterone”.

In the case of `CC(=O)S[C@@H]1CC2=CC(=O)CC[C@]2(C)[C@H]2CC[C@@]3(C)[C@@H](CC[C@@]34CCC(=O)O4)[C@H]12` [spironolactone], the “effect on aldosterone-induced increase in collagen type I mRNA levels” value [3] is reported as “returned the aldosterone-induced increase in collagen type I mRNA levels to untreated values”, the “effect on aldosterone-induced collagen production” value [4] is reported as “abrogated aldosterone-induced collagen production; also recorded: eliminated any aldosterone-induced increase in collagen type I production” and the “effect on aldosterone-induced increase in elastin mRNA levels” value ([1]; 24 hours) is reported as “failed to prevent an aldosterone-induced increase in elastin mRNA expression; also recorded: neither spironolactone nor RU 486 eliminated this increase”. For the same compound, the “effect on aldosterone-induced increase in tropoelastin production” value [5] was “failed to prevent; also recorded: did not abrogate the increase in tropoelastin production”, the “effect on aldosterone-induced increase in insoluble elastin production” value ([2]; 72 hours) was “failed to prevent; also recorded: did not eliminate the increase in insoluble elastin production” and the “effect on aldosterone-induced increase in elastin mRNA, adult cardiac fibroblasts” value [6] was “had no effect on the aldosterone-induced increase in elastin mRNA transcript levels”. For the same compound, the “effect on aldosterone-induced increase in elastic fiber deposition, adult cardiac fibroblasts” value [7] was “did not affect aldosterone-induced increase in elastic fiber deposition”.

In the case of `CN[C@@H]1C[C@H]2O[C@@](C)([C@@H]1OC)n1c3ccccc3c3c4c(c5c6ccccc6n2c5c31)C(=O)NC4` [staurosporine], the “effect on aldosterone-induced increase in elastin production (elastogenic response)” value [2] is reported as “did not abrogate the aldosterone-induced increase in elastin production”.

For “CT04: cell-permeable Rho inhibitor (exoenzyme C3 transferase) from Cytoskeleton, Inc.”, the “effect on aldosterone-induced increase in elastin mRNA levels” value ([1]; 24 hours) was “did not eliminate the aldosterone-induced increase in elastin mRNA expression” and the “effect on aldosterone-induced increase in elastin production (elastogenic response)” value [2, 10] was “did not eliminate the aldosterone-induced increase in elastin mRNA expression and elastin production”.

With “IGF-I: recombinant human insulin-like growth factor-I” the “elastin mRNA levels” value ([1]; 100 ng/ml IGF-I, 24 hours) was “approximately threefold increase”, the “net production of insoluble elastin” value ([2]; 100 ng/ml IGF-I, 72 hours) was “approximately threefold increase” and the “tyrosine phosphorylation of the IGF-IR” value ([8]; 10-minute exposure, 10% fetal bovine serum, aldosterone or BSA-conjugate 50 nM, IGF-I 100 ng/ml) was “produced a very similar effect”. For the same compound, the “tyrosine phosphorylation of the IGF-IR, dependence on serum” value ([8]; presence vs absence of fetal bovine serum) was “induced phosphorylation of its IGF-IR, both in the presence and in the absence of fetal bovine serum”.

For aluminum fluoride, the “interaction between c-Src and Gα13” value [9] was “increased the interaction between c-Src and Gα13”.

In the case of pertussis toxin, the “effect on aldosterone-induced increase in insoluble elastin production” value ([2]; 72 hours) is reported as “did not inhibit the elastogenic effect of aldosterone” and the “effect on aldosterone-induced increase in elastin production (elastogenic response)” value [2, 10] is reported as “did not abrogate the aldosterone-induced increase in elastin production; also recorded: does not attenuate the pro-elastogenic effect of aldosterone”.
